Measurements from patent US20230059785A1, “METHODS FOR ENHANCING T CELLS USING VENETOCLAX” (University Health Network, priority 2020, published 2023).

Legend:
[1] = tested on: DNTs treated with 400 nM Ven; assay: Co-treatment of DNT cells with Venetoclax and ROS scavenger NAC; type: cell-based, human
Experimental: (C) To determine the functional relevance of increased ROS level in Ven treated DNTs, ROS level in DNTs treated with 400 nM Ven in the presence of various concentrations of ROS-scavenger, N-acetylcysteine (NAC), and these cells were used as effector cells against AML during an in vitro killing assay. The result shown is representative of three independent experiments. […] (H-K) DNT (H and I) or Tconv cells (J and K) were treated with 0 nM, 100 nM, or 400 nM Venetoclax for 4 hours, 18 hours and 2 days. Cells were stained with CellROX (H and J) or MitoSOX (I and K). MFI of cellular or mitochondrial (mt) ROS was measured by flow cytometry. Data represent the mean ±SEM of results from four different donor T cells. (L) DNTs treated with 400 nM Venetoclax with or without 2 mM NAC for 18 hours. […] MFI of CD25 and CD69 were measured by flow cytometry. Experiments were done in triplicates, and the data shown is representative of two independent experiments done using DNTs from two donors. (M) DNT cells were treated with 400 nM Venetoclax for 18 hours.

[2] = tested on: DNTs; assay: Effect of other ROS-inducing reagents on DNT ROS level and viability; conditions: 18 hours; cytarabine 0-3 μM, antimycin 0-250 nM, daunorubicin 0-10 μM
Experimental: (§1) FIG. 15. Effect of other known ROS-inducing reagents on DNT viability, ROS level, and cytotoxicity against AML. DNTs were treated with increasing concentrations of cytarabine (0-3 μM), antimycin (0-250 nM) or daunorubicin (0-10 μM) for 18 hours. Subsequently, the level of cellar ROS in the DNTs (A), DNT viability (B), and cytotoxicity against OCI-AML2 (C) were determined.
(§2) To determine the effect of other ROS-inducing agents on DNT-mediated cytotoxicity, DNTs were treated with increasing concentrations of cytarabine, daunorubicin, and antimycin.

[3] = tested on: OCI-AML2; assay: DNT cells pre-treated with Bcl-2 family protein inhibitors, used as effectors against OCI-AML2; conditions: overnight pre-treatment, different concentrations
Source text: FIG. 5. […] (A) DNT cells were pre-treated with different concentrations of Obatoclax, ABT-737, or Venetoclax overnight and were used as effector cells against OCI-AML2. […] (C) Expression of Bcl-xL and Bcl-2 on ex vivo expanded DNT cells from three donors (UPN38, UPN108, and UPN134) and AML cell lines, OCI-AML2, TEX, NB4, and K562 determined by Western blot. Tubulin was used as a loading control.
As Bcl-2 is well-known to protect cells from apoptosis, one would expect that inhibiting this pathway would lead to increased T cell apoptosis and dampened T cell function.

[4] = tested on: OCI-AML2; assay: Time course of Venetoclax treatment of DNT and Tconv cells, cytotoxicity against OCI-AML2; type: cell-based, human; conditions: DNTs and Tconv cells; Venetoclax 100 nM and 400 nM; 4 hours up to 3 days
Experimental: (§3) Venetoclax rapidly and directly increases cytotoxicity of T cells against AML. DNT (top panels) and Tconv cells (bottom panels) untreated or treated with Venetoclax (100 nM and 400 nM) for 4 h, 18 h, and 3 days. Subsequently, their cytotoxicity against OCI-AML2 was determined. Data represent the mean ±SEM of results from four different donor T cells. FIG. 4(C). DNT and Tconv cells untreated or treated with Venetoclax (100 nM or 400 nM) for 4 hours. Subsequently, their viability was determined. Data represent the mean ±SEM of results from four different donor T cells.
(§4) To elucidate the underlying mechanism by which Ven-mediates increased cytotoxicity of T cells, the expression of T cell activation markers and effector molecules on DNT cells with or without Ven treatment was compared. […] Thus, Venetoclax directly activates effector T cells to increase their cytotoxicity without depleting naïve or inhibitory T cell subsets.

[5] = tested on: DNTs; assay: Viability of DNTs treated with Venetoclax (Annexin V staining and flow cytometry); type: cell-based, human; conditions: Venetoclax 18 h
Experimental: FIG. 10. […] (A) Viability of DNTs and OCI-AML2 cells treated with 400 nM Venetoclax for 18 hours was determined by Annexin V staining and flow cytometry. (B and C) DNTs were treated with increasing concentrations of Venetoclax for 18 h. Subsequently, their viability (B) and cytotoxicity (C) against OCI-AML2 and two primary AML cells (090765 and 110162) were determined. ANOVA was used for statistics. ****p<0.0001.

[6] = tested on: DNT cells; assay: Glycolysis, glycolytic capacity and oxygen consumption rate of DNT cells; type: cell-based, human
[7] = tested on: AML cell lines, OCI-AML2, OCI-AML3, and KG1a; assay: In vitro killing assay with Ven-pretreated Tconv cells against AML cell lines; type: cell-based, human; conditions: Ven 25-400 nM
Experimental: FIG. 4(A). Venetoclax enhances anti-leukemic activity of CD4^+ or CD8^+ conventional T cells. Ex vivo expanded Tconv cells untreated or treated with various concentrations of Ven (25 nM, 50 nM, 100 nM, 200 nM, or 400 nM), were used as effector cells against AML cell lines, OCI-AML2, OCI-AML3, and KG1a. The result shown represents four biological replicates. FIG. 4(B).
While treating DNT cells with Ven to enhance their anti-leukemic activity may be beneficial for DNT-therapy, experiments were performed to determine whether Ven has an effect on the anti-leukemic activity of CD4^+ or CD8^+ conventional T (Tconv) cells as Tconv cells are more wildly used as cancer immunotherapy clinically. To this end, polyclonally activated Tconv cells were pre-treated with different concentrations of Ven prior to their co-culture with […]

[8] = tested on: DNT and Tconv cells; assay: Viability of DNT and Tconv cells after Venetoclax treatment; type: cell-based, human; conditions: Venetoclax 100 nM or 400 nM, 4 hours
Experimental: as §3, §4

[9] = tested on: AML cell lines, OCI-AML2, OCI-AML3, and KG1a; assay: In vitro killing assay with Ven-pretreated DNT cells against AML cell lines; type: cell-based, human; conditions: Ven 50, 100, 200, 400 nM overnight
Experimental: (§5) FIG. 2. Venetoclax enhances T cell mediated cytotoxicity against AML in vitro. (A) To validate the finding from the drug screening, in vitro killing assay was conducted with DNT cells untreated or pretreated with various concentrations of Ven (50 nM, 100 nM, 200 nM, 400 nM) for overnight against AML cell lines, OCI-AML2, OCI-AML3, and KG1a. The data is representative of four biological replicates. (B) In vitro cytotoxicity assay using DNT cells pretreated with 400 nM Ven as effectors against primary AML patient samples (n=17). (C) To determine the activity of DNT cells with or without Ven-treatment against leukemia initiating cells, untreated AML or AML treated with untreated or Ven-treated DNT cells were seeded at 10^3 cells per ml in a methylcellulose-based colony forming assay, and the number of colonies formed were determined 10 days after. The experiment was done with OCI-AML2 and KG1a, as well as patient samples 140372, 100857, 110162 and 141065. […] The experiment was done using DNT cells from two different donors (UPN119 and UPN38). (E) Correlation between the susceptibility of AML to DNT cells and the degree of increase in DNT cell-mediated cytotoxicity by Ven treatment. […] Subsequently, they were cultured with OCI-AML2 at 1:1, 2:1, or 4:1 DNT:AML ratio, and the viability of AML cells were measured by Annexin V staining and flow cytometry. […]

[10] = tested on: primary AML patient samples; type: cell-based, human
Experimental: as §5, with “UPN38).” for “UPN38). (E) Correlation between the susceptibility of AML to DNT cells and the degree of increase in DNT cell-mediated cytotoxicity by Ven treatment.”
FIG. 11. […] The increase in DNT-mediated cytotoxicity by Venetoclax treatment was determined against each patient sample type. […]

[11] = tested on: autologous and allogeneic PBMCs; assay: Cytotoxicity of DNT cells against normal blood cells; type: cell-based, human; conditions: PBMCs from healthy donors
Source text: To determine if Ven increases the cytotoxicity of DNT cells against normal blood cells, autologous and allogeneic PBMCs from healthy donors were used as targets.

[12] = tested on: human AML cell line, OCI-AML2; assay: Drug screening assay: DNT cells pretreated with 269 approved drugs, then used as effectors against AML; type: cell-based; conditions: DNT cells treated at 400 nM overnight, washed, cultured with AML cells two hours; library of 269 drugs
Experimental: FIG. 1. Drug screening assay identifies Venetoclax as the top hit for enhancing cytotoxicity of T cells against AML. Schematic diagram of drug screening assay done to identify clinically approved drugs that can be used in combination with DNT cells to yield in synergistic anti-tumor activity. DNT cells were treated with 269 different clinically approved drugs at 400 nM for overnight. Subsequently, compound-treated cells were washed and then cultured with AML cells for two-hours.
To identify molecules that increase the potency of T cell mediated cytotoxicity against AML, ex vivo expanded DNT cells were used as a surrogate for anti-leukemic T cells and pretreated with a compound library of 269 drugs approved for various clinical uses. Subsequently, compound-treated cells were used as effectors against human AML cell line, OCI-AML2.

[13] = tested on: OCI-AML2; assay: Effect of other ROS-inducing reagents on DNT cytotoxicity against OCI-AML2; conditions: 18 hours; cytarabine 0-3 μM, antimycin 0-250 nM, daunorubicin 0-10 μM
Experimental: as §1, §2

`CC(=O)N[C@@H](CS)C(=O)O` [NAC, N-acetylcysteine] was tested, and the “upregulation of activation markers (CD25 and CD69) by Venetoclax” value ([1]; 400 nM Venetoclax with 2 mM NAC, 18 hours) was “blocked the upregulation of activation markers”, the “DNT cell-mediated cytotoxicity against AML” value ([1]; co-treatment with 400 nM Ven) was “abrogated the effect of Venetoclax on DNT cell-mediated cytotoxicity against AML” and the “cellular ROS level in Venetoclax-treated DNT cells” value ([1]; co-treatment with 400 nM Ven) was “reduced the cellular ROS level”.
In the case of `COc1cccc2c1C(=O)c1c(O)c3c(c(O)c1C2=O)C[C@@](O)(C(C)=O)C[C@@H]3O[C@H]1C[C@H](N)[C@H](O)[C@H](C)O1` [daunorubicin], the “level of cellular ROS in DNTs” value [2] is reported as “lower ROS level”.
For `COC1=CC(c2cc3ccccc3[nH]2)=N/C1=C\c1[nH]c(C)cc1C` [Obatoclax], the “effect on DNT cells and their cytotoxicity against OCI-AML2” value [3] was “induced DNT cell death or inhibited their cytotoxicity”.
In the case of `Nc1ccn([C@@H]2O[C@H](CO)[C@@H](O)[C@@H]2O)c(=O)n1` [cytarabine], the “level of cellular ROS in DNTs” value [2] is reported as “Increased ROS levels”.
In the case of `CC1(C)CCC(CN2CCN(c3ccc(C(=O)NS(=O)(=O)c4ccc(NCC5CCOCC5)c([N+](=O)[O-])c4)c(Oc4cnc5[nH]ccc5c4)c3)CC2)=C(c2ccc(Cl)cc2)C1` [Venetoclax], the “T cell cytotoxicity against AML after different treatment times” value [4] is reported as “increased T cell cytotoxicity against AML”, the “viability of DNTs” value [5] is reported as “without reducing the viability of the DNTs” and the “glycolysis, glycolytic capacity, and basal oxygen consumption rate of DNT cells” value [6] is reported as “no significant effect”. For the same compound, the “cytotoxicity of Ven-pretreated Tconv cells against AML cell lines” value [7] was “significant enhancement of cytotoxicity of Tconv cells”, the T cell viability [8] was “without changing the T cell viability” and the “cytotoxicity of Ven-pretreated DNT cells against AML cell lines” value [9] was “increased cytotoxicity of DNT cells against three different AML cell lines, AML2-OCI, AML3-OCI, and KG1a, in a dose-dependent manner”. For the same compound, the “correlation between susceptibility of AML to DNT cells and degree of increase in DNT cell-mediated cytotoxicity by Ven treatment” value [10] was “clear inverse correlation”, the “killing of autologous and allogeneic PBMCs by Ven-treated DNT cells” value [11] was “insignificant degree of killing” and the “change in cytotoxicity mediated by DNT cells against AML cells relative to untreated DNT cells” value [12] was “increased the cytotoxicity of DNT cells the most”.
antimycin was tested, and the DNT viability [2] was “no to little loss of viability”, the “level of cellular ROS in DNTs” value [2] was “Increased ROS levels” and the “DNT-mediated cytotoxicity against OCI-AML2” value [13] was “did not enhance the cytotoxicity of DNTs”.
